Laboratory results taken from the NIST ThermoML archive (doi:10.1016/j.jct.2011.10.014).
Where “and” joins values, the source holds several entries; their conditions need not be identical. Equal values may be shown once. ± gives the expanded uncertainty stated by the source.

Experiment: molar heat capacity at constant pressure
Conditions: 101.33 kPa, Crystal, Vacuum adiabatic calorimetry

O=C([O-])[O-].[Pb+2] [lead(II) carbonate]
Conditions	molar heat capacity at constant pressure
229.94 K	77.92 ± 0.26 J/K/mol
230 K	77.94 ± 0.28 J/K/mol
233.13 K	78.35 ± 0.26 J/K/mol
236.26 K	78.83 ± 0.26 J/K/mol
239.37 K	79.24 ± 0.26 J/K/mol
240 K	79.27 ± 0.28 J/K/mol
242.47 K	79.61 ± 0.26 J/K/mol
245.56 K	79.93 ± 0.27 J/K/mol
247.36 K	80.25 ± 0.27 J/K/mol
247.44 K	80.03 ± 0.27 J/K/mol
248.53 K	80.25 ± 0.27 J/K/mol
248.62 K	80.46 ± 0.27 J/K/mol
249.63 K	80.36 ± 0.27 J/K/mol
250 K	80.62 ± 0.28 J/K/mol
250.32 K	80.37 ± 0.27 J/K/mol
250.72 K	80.4 ± 0.27 J/K/mol
251.68 K	80.91 ± 0.27 J/K/mol
251.81 K	80.67 ± 0.27 J/K/mol
252.9 K	80.66 ± 0.27 J/K/mol
253.25 K	80.99 ± 0.27 J/K/mol
253.98 K	80.8 ± 0.27 J/K/mol
254.73 K	81.2 ± 0.27 J/K/mol
255.06 K	81.13 ± 0.27 J/K/mol
255.71 K	81.1 ± 0.27 J/K/mol
256.15 K	81.11 ± 0.27 J/K/mol
256.2 K	81.29 ± 0.27 J/K/mol
256.35 K	81.17 ± 0.27 J/K/mol
257 K	81.19 ± 0.27 J/K/mol
257.23 K	81.2 ± 0.27 J/K/mol
257.66 K	81.19 ± 0.27 J/K/mol
257.75 K	81.55 ± 0.27 J/K/mol
258.31 K	81.42 ± 0.27 J/K/mol
258.32 K	81.33 ± 0.27 J/K/mol
258.97 K	81.78 ± 0.27 J/K/mol
259.12 K	81.62 ± 0.27 J/K/mol
259.4 K	81.47 ± 0.27 J/K/mol
259.66 K	81.57 ± 0.27 J/K/mol
260 K	81.98 ± 0.28 J/K/mol
260.33 K	81.49 ± 0.27 J/K/mol
260.47 K	81.78 ± 0.27 J/K/mol
260.76 K	82.18 ± 0.27 J/K/mol
260.93 K	82.3 ± 0.27 J/K/mol
261 K	81.89 ± 0.27 J/K/mol
261.55 K	81.78 ± 0.27 J/K/mol
261.69 K	82.09 ± 0.27 J/K/mol
262.03 K	82.18 ± 0.27 J/K/mol
262.39 K	82.04 ± 0.27 J/K/mol
262.62 K	82.88 ± 0.27 J/K/mol
262.63 K	81.92 ± 0.27 J/K/mol
263.17 K	81.79 ± 0.27 J/K/mol
263.27 K	82.56 ± 0.27 J/K/mol
263.7 K	82.23 ± 0.27 J/K/mol
263.78 K	82.71 ± 0.27 J/K/mol
263.85 K	82.12 ± 0.27 J/K/mol
263.9 K	82.69 ± 0.27 J/K/mol
264.53 K	82.15 ± 0.27 J/K/mol
264.54 K	82.73 ± 0.27 J/K/mol
264.79 K	82.47 ± 0.27 J/K/mol
264.95 K	82.64 ± 0.27 J/K/mol
265.18 K	82.86 ± 0.27 J/K/mol
265.2 K	82.17 ± 0.27 J/K/mol
265.82 K	82.91 ± 0.27 J/K/mol
265.86 K	82.45 ± 0.27 J/K/mol
265.88 K	82.3 ± 0.27 J/K/mol
266.47 K	83.02 ± 0.27 J/K/mol
266.56 K	82.66 ± 0.27 J/K/mol
266.78 K	83.22 ± 0.27 J/K/mol
266.94 K	82.58 ± 0.27 J/K/mol
267.12 K	83.34 ± 0.27 J/K/mol
267.27 K	82.4 ± 0.27 J/K/mol
267.77 K	83.48 ± 0.27 J/K/mol
267.85 K	83 ± 0.27 J/K/mol
267.95 K	82.62 ± 0.27 J/K/mol
268.01 K	82.76 ± 0.27 J/K/mol
268.42 K	83.69 ± 0.27 J/K/mol
268.63 K	82.71 ± 0.27 J/K/mol
269.07 K	83.96 ± 0.27 J/K/mol and 83 ± 0.27 J/K/mol
269.31 K	82.9 ± 0.27 J/K/mol
269.73 K	83.98 ± 0.27 J/K/mol
269.75 K	84.22 ± 0.27 J/K/mol
269.99 K	83.23 ± 0.27 J/K/mol
270 K	83.33 ± 0.28 J/K/mol
270.14 K	83.5 ± 0.27 J/K/mol
270.38 K	84.12 ± 0.27 J/K/mol
270.68 K	83.45 ± 0.27 J/K/mol
270.74 K	83.86 ± 0.27 J/K/mol
271.04 K	84.03 ± 0.27 J/K/mol
271.2 K	83.78 ± 0.27 J/K/mol
271.36 K	84.03 ± 0.27 J/K/mol
271.7 K	84.69 ± 0.28 J/K/mol
272.07 K	84.59 ± 0.28 J/K/mol
272.26 K	84.68 ± 0.28 J/K/mol
272.43 K	85.87 ± 0.28 J/K/mol
272.67 K	88.34 ± 0.28 J/K/mol
272.77 K	85.64 ± 0.28 J/K/mol
273.1 K	94.33 ± 0.29 J/K/mol
273.15 K	83.77 ± 0.28 J/K/mol
273.3 K	90.01 ± 0.28 J/K/mol
273.43 K	87.85 ± 0.28 J/K/mol
273.58 K	87.5 ± 0.28 J/K/mol
273.76 K	86.34 ± 0.28 J/K/mol
274.21 K	85.21 ± 0.28 J/K/mol
274.36 K	85.11 ± 0.28 J/K/mol
274.43 K	85.57 ± 0.28 J/K/mol
274.92 K	84.78 ± 0.27 J/K/mol
275.09 K	85.53 ± 0.28 J/K/mol
275.43 K	85.37 ± 0.28 J/K/mol
275.61 K	85.08 ± 0.28 J/K/mol
275.62 K	85.95 ± 0.28 J/K/mol
275.76 K	86.02 ± 0.28 J/K/mol
276.3 K	85.69 ± 0.28 J/K/mol
276.44 K	86.06 ± 0.28 J/K/mol
276.47 K	85.96 ± 0.28 J/K/mol
276.49 K	86.54 ± 0.28 J/K/mol
276.98 K	85.66 ± 0.28 J/K/mol
277.13 K	85.86 ± 0.28 J/K/mol
277.55 K	87.21 ± 0.28 J/K/mol
277.67 K	85.56 ± 0.28 J/K/mol
277.8 K	86.13 ± 0.28 J/K/mol
278.35 K	85.61 ± 0.28 J/K/mol
278.49 K	85.51 ± 0.28 J/K/mol
278.57 K	85.33 ± 0.28 J/K/mol
278.64 K	85.79 ± 0.28 J/K/mol
279.04 K	84.8 ± 0.28 J/K/mol
279.16 K	84.95 ± 0.28 J/K/mol
279.34 K	85.02 ± 0.28 J/K/mol
279.74 K	85.51 ± 0.28 J/K/mol and 84.58 ± 0.27 J/K/mol
279.84 K	84.46 ± 0.27 J/K/mol
280 K	84.69 ± 0.28 J/K/mol
280.48 K	84.25 ± 0.27 J/K/mol
280.51 K	84.4 ± 0.27 J/K/mol
280.87 K	84.45 ± 0.27 J/K/mol
281.17 K	84.41 ± 0.27 J/K/mol
281.18 K	84.61 ± 0.27 J/K/mol
281.61 K	84.92 ± 0.28 J/K/mol
281.86 K	84.62 ± 0.27 J/K/mol
281.87 K	84.51 ± 0.27 J/K/mol
282.22 K	84.71 ± 0.27 J/K/mol
282.54 K	84.79 ± 0.28 J/K/mol
283.3 K	84.95 ± 0.28 J/K/mol
283.98 K	85.16 ± 0.28 J/K/mol
284.55 K	85.29 ± 0.28 J/K/mol
284.68 K	85.43 ± 0.28 J/K/mol
285.39 K	85.19 ± 0.28 J/K/mol
286.07 K	85.27 ± 0.28 J/K/mol
286.75 K	85.41 ± 0.28 J/K/mol
287.43 K	85.38 ± 0.28 J/K/mol
287.49 K	85.63 ± 0.28 J/K/mol
288.12 K	85.33 ± 0.28 J/K/mol
288.8 K	85.51 ± 0.28 J/K/mol
289.49 K	85.71 ± 0.28 J/K/mol
290 K	86.01 ± 0.29 J/K/mol
290.41 K	86 ± 0.28 J/K/mol
293.33 K	86.4 ± 0.28 J/K/mol
296.23 K	86.78 ± 0.28 J/K/mol
298.15 K	87.07 ± 0.27 J/K/mol
299.12 K	87.18 ± 0.28 J/K/mol
300 K	87.3 ± 0.29 J/K/mol
302 K	87.59 ± 0.28 J/K/mol
304.88 K	87.95 ± 0.28 J/K/mol
307.76 K	88.29 ± 0.28 J/K/mol
310 K	88.56 ± 0.29 J/K/mol
310.62 K	88.63 ± 0.28 J/K/mol
313.49 K	89 ± 0.28 J/K/mol
316.35 K	89.34 ± 0.28 J/K/mol
320 K	89.76 ± 0.29 J/K/mol
